Where no end group is shown, it is not given here. The star is where a group is joined. Myristoyl = CCCCCCCCCCCCCC(=O)*
Legend:
[1] = tested on: antigen-presenting cells, dendritic cells (DCs); assay: Homing of antigen-presenting dendritic cells to mediastinal lymph nodes, flow cytometry, Ova-induced allergic mouse asthma; assay type: in vivo; settings: allergic animal model; OVA-DQ challenge day 15-18; CD11c+ cells in mediastinal lymph nodes
Procedure: For detection of antigen specific DCs migration, mice were challenged with 150 μg OVA-DQ (Life Technologies, Grand Island, N.Y.) for one time per day at day 15-18. Cells were isolated from the mediastinal lymph nodes and lungs. Cells were stained with CD11c conjugated PEC-Cy7 (BD Bioscience, San Jose, Calif.) and analyzed by flow cytometry. Peptides used in this study were (wild type) MPS, A-MPS (mutant 2 in the figure) and D-MPS (mutant 1 in the FIG. 8).

phospho-STAT6 = assay: IL-13-induced signaling in primary NHBE cells, western blot: phospho-STAT6; assay type: cell-based, human; settings: air-liquid interface, peptide 50 μM for 4 hrs, then IL-13 20 ng/ml for one hour
phospho-MARCKS = assay: IL-13-induced signaling in primary NHBE cells, western blot: phospho-MARCKS; assay type: cell-based, human; settings: air-liquid interface, peptide 50 μM for 4 hrs, then IL-13 20 ng/ml for one hour
[2] = tested on: OVA-allergic mouse airways; assay: Airway resistance by invasive body plethysmography, murine OVA-allergic model; assay type: in vivo; settings: peptide i.p. before OVA i.n. challenge
Procedure: (§1) FIG. 2A: Murine OVA-allergic model.
Experiments were carried out as described in FIG. 2A. At day 19, animals were collected for airway resistance as measured by invasive body plethysmography. Data are expressed as the mean±SEM values (n=3). # p<0.05, PBS+OVA compared with the PBS control. *p<0.05, MPS +OVA compared with the PBS+OVA group.

[3] = tested on: OVA-allergic mouse airways; assay: Lung section histology (H&E, PAS), murine OVA-allergic model; assay type: in vivo; settings: for allergic inflammation associated with allergen/ovalbumin-induced allergic airway disease: mouse
Procedure: as §1
FIGS. 4A-4B show MPS suppressed mucous cell metaplasia (stained by periodic acid stain (PAS)) and inflammatory cells in OVA-allergic mouse airways. Experiments were carried out as described in FIG. 2A. At day 19, animals were sacrificed and lung tissues were fixed for paraffin sections. FIG. 4A: Lung sections were stained by H&E, and PAS staining. Original magnification ×200. FIG. 4B: Quantification of the numbers of H&E-stained cells and PAS-stained cells, and the score of the Masson trichrome staining are presented in bar graphs. Data are expressed as mean±SEM values (n=6).

OVA-specific IgE = settings: OVA-allergic mouse; MPS 154 μg/mouse/day i.p.; ELISA
p-Ser-159/163 MARCKS = settings: MPS 154 μg/mouse/day i.p. day 10-14 prior to OVA i.n. exposure; IHC of lung tissue sections
[4] = tested on: inflammatory cell types in OVA-allergic mouse airways
[5] = tested on: BALF inflammatory cytokines (IL-4, IL-5, IL-13, eotaxin; IFN-γ); settings: OVA-allergic mouse airways; MPS 154 μg/mouse/day i.p.; ELISA
mucus secretion = settings: previously reported, U.S. Patent Application Publication No. 2009/00220581; cited from earlier work
[6] = day 19, MPS+OVA vs PBS+OVA p<0.05
[7] = OVA-allergic mouse airways, MPS 154 μg/mouse/day i.p., day 19

Substance | lymph node homing of antigen presenting cells [1] | suppression of IL-13-induced phospho-STAT6 elevation (phospho-STAT6) | suppression of IL-13-induced phospho-MARCKS elevation (phospho-MARCKS) | airway hyper-reactivity (airway resistance) [2, 6] | allergic inflammation associated with allergen/ovalbumin-induced allergic airway disease [3] | serum OVA-specific IgE (OVA-specific IgE) | MARCKS phosphorylation in OVA sensitizing mice (p-Ser-159/163 MARCKS) | eosinophils (inflammatory response) ([4]; BALF differential cell counts) | presence of various inflammatory cell types in BALF ([4]; MPS 154 μg/mouse/day i.p., day 19) | Th1 cytokine (IFN-γ) in BALF [5] | Th2 cytokines (IL-4, IL-5, IL-13, eotaxin) in BALF [5] | airway hyper-reactivity (airway resistance) ([2]; day 19, MPS+OVA vs PBS+OVA p<0.05, listed as (wild-type) MPS) | inflammatory cells in lung tissue (H&E) [3, 7] | mucous cell metaplasia (PAS stain) [3, 7] | mucus secretion (mucus secretion)
KKKKKRFAFKKAFKLAGFAFKKNKK [A-MPS] | inhibited | very effective in the suppression | very effective in the suppression | able to suppress | able to suppress | – | – | – | – | – | – | – | – | – | –
KKKKKRFDFKKDFKLDGFDFKKNKK [D-MPS] | no suppressive effects | not | not | not seen | not seen | – | – | – | – | – | – | – | – | – | –
KKKKKRFSFKKSFKLSGFSFKKNKK [MPS] | inhibited | very effective in the suppression | very effective in the suppression | suppressed | able to suppress | suppressed | effectively suppress | reduction | suppressed | not | suppressed specifically | able to suppress | suppressed | suppressed | –
myristic acid—KKKKKRFSFKKSFKLSGFSFKKNKK (Myristoyl-KKKKKRFSFKKSFKLSGFSFKKNKK) [myristic acid-wild type MPS disclosed in U.S. 2009/00220581] | – | – | – | – | – | – | – | – | – | – | – | – | – | – | increased
